# In patent US6673793B2, “Oxazinoquinolones useful for the treatment of viral infections” (Pharmacia & Upjohn Co., priority 2000, dated 2004):
# Columns and labels:
# CMV polymerase = biological target: T1, CMV polymerase (Human cytomegalovirus, UniProt P08546); test: HCMV polymerase assay, scintillation proximity assay (SPA), modified version; format: biochemical; conditions: modified HCMV polymerase SPA assay: compounds diluted in 100% DMSO, 4.5 mM DTT in polymerase buffer, different lot of CMV polymerase; read-out: CMV polymerase IC50
# T1 construct: made in house; host or cells: recombinant baculovirus-infected SF-9 cells
# Method: The HCMV polymerase assay is performed using a scintillation proximity assay (SPA) as described in several references, such as N. D. Cook, et al., Pharmaceutical Manufacturing International, pages 49-53 (1992); K. Takeuchi, Laboratory Practice, September issue (1992); U.S. Pat. No. 4,568,649 (1986); which are incorporated by reference herein. Reactions are performed in 96-well plates. The assay is conducted in 100 μl volume with 5.4 mM HEPES (pH 7.5), 11.7 mM KCl, 4.5 mM MgCl2, 0.36 mg/ml BSA, and 90 nM ^3H-dTTP. Assays are run with and without CHAPS, (3-[(3-Cholamidopropyl)-dimethylammonio]-1-propane-sulfonate) at a final concentration of 2 mM. HCMV polymerase is diluted in enzyme dilution buffer containing 50% glycerol, 250 mM NaCl, 10 mM HEPES (pH 7.5), 100 μg/ml BSA, and 0.01% sodium azide. The HCMV polymerase, which is expressed in recombinant baculovirus-infected SF-9 cells and purified according to literature procedures, is added at 10% (or 10 μl) of the final reaction volume, i.e., 100 μl. Compounds are diluted in 50% DMSO and 10 μl are added to each well. Control wells contain an equivalent concentration of DMSO. Unless noted otherwise, reactions are initiated via the addition of 6 nM biotinylated poly(dA)-oligo(dT) template/primer to reaction mixtures containing the enzyme, substrate, and compounds of interest. Plates are incubated in a 25 C. or 37 C. H2O bath and terminated via the addition of 40 μl/reaction of 0.5 M EDTA (pH 8) per well. Reactions are terminated within the time-frame during which substrate incorporation is linear and varied depending upon the enzyme and conditions used, i.e., 30 min. for HCMV polymerase. Ten μl of streptavidin-SPA beads (20 mg/ml in PBS/10% glycerol) are added following termination of the reaction. Plates are incubated 10 min. at 37 C., then equilibrated to room temperature, and counted on a Packard Topcount. Linear regressions are performed and IC50's are calculated using computer software.
# A modified version of the above HCMV polymerase assay is performed as described above, but with the following changes: Compounds are diluted in 100% DMSO until final dilution into assay buffer. In the previous assay, compounds are diluted in 50% DMSO. 4.5 mM dithiotherotol (DTT) is added to the polymerase buffer.
# T1 sequence (P08546 whole entry): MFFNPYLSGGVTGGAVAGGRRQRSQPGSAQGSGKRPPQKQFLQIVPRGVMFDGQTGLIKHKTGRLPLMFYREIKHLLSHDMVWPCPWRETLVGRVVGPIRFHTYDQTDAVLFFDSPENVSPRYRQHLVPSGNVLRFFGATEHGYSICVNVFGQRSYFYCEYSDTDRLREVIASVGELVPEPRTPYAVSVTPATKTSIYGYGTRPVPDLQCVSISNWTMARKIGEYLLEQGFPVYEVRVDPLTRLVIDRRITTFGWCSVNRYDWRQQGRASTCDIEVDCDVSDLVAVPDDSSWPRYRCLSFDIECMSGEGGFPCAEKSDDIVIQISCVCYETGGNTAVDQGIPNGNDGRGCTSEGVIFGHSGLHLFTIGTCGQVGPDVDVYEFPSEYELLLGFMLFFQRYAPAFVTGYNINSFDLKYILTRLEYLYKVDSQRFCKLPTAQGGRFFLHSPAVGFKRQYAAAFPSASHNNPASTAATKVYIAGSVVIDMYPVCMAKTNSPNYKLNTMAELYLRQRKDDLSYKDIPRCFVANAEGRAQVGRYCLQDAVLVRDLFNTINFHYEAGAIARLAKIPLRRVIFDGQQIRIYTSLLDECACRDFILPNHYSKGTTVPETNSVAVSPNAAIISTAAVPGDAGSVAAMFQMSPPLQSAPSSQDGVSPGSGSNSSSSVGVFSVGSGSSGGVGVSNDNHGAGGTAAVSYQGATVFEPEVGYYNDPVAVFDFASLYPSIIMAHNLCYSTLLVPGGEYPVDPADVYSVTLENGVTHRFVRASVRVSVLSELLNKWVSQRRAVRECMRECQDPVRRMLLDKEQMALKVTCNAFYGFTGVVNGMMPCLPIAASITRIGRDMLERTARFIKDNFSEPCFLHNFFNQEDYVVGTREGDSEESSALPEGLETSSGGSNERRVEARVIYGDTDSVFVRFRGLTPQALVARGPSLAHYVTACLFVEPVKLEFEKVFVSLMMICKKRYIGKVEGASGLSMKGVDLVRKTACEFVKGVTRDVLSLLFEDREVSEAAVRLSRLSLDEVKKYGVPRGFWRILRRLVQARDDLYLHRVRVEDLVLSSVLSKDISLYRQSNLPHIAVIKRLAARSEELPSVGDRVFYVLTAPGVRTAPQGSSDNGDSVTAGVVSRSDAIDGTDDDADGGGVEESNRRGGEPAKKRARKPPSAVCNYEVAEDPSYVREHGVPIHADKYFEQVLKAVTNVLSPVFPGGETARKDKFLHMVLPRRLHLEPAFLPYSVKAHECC
Structure (SMILES),IC50 (CMV polymerase),melting point
"O=C(NCc1ccc(Cl)cc1)c1cn2c3c(cc(CN4CCOCC4)cc3c1=O)OC(c1cc(F)cc(F)c1)C2 (stereo not drawn) [Example 39, N-(4-Chlorobenzyl)-2-(3,5-difluorophenyl)-9-(morpholin-4-ylmethyl)-7-oxo-2,3-dihydro-7H-[1,4]oxazino[2,3,4-ij]quinoline-6-carboxamide]",0.33 µM,234 to 236 °C
"O=C(NCc1ccc(Cl)cc1)c1cn2c3c(cc(CN4CCOCC4)cc3c1=O)OC(c1ccc3c(c1)OCO3)C2 (stereo not drawn) [Example 40, 2-(1,3-Benzodioxol-5-yl)-N-(4-chlorobenzyl)-9-(morpholin-4-ylmethyl)-7-oxo-2,3-dihydro-7H-[1,4]oxazino[2,3,4-ij]quinoline-6-carboxamide]",0.33 µM,227 to 231 °C
"O=C(NCc1ccc(Cl)cc1)c1cn2c3c(cc(CN4CCOCC4)cc3c1=O)OC(c1ccc3c(c1)OCCO3)C2 (stereo not drawn) [Example 41, N-(4-Chlorobenzyl)-2-(2,3-dihydro-1,4-benzodioxin-6-yl)-9-(morpholin-4-ylmethyl)-7-oxo-2,3-dihydro-7H-[1,4]oxazino[2,3,4-ij]quinoline-6-carboxamide]",0.44 µM,240 to 243 °C
"O=C(NCc1ccc(Cl)cc1)c1cn2c3c(cc(CN4CCOCC4)cc3c1=O)OC(c1cccc3c1OCO3)C2 (stereo not drawn) [Example 42, 2-(1,3-Benzodioxol-4-yl)-N-(4-chlorobenzyl)-9-(morpholin-4-ylmethyl)-7-oxo-2,3-dihydro-7H-[1,4]oxazino[2,3,4-ij]quinoline-6-carboxamide]",0.2 µM,221 to 225 °C (dec.)
"O=C(NCc1ccc(Cl)cc1)c1cn2c3c(cc(CN4CCOCC4)cc3c1=O)OC(c1ccsc1)C2 (stereo not drawn) [Example 45, N-(4-Chlorobenzyl)-9-(morpholin-4-ylmethyl)-7-oxo-2-thien-3-yl-2,3-dihydro-7H-[1,4]oxazino[2,3,4-ij]quinoline-6-carboxamide]",0.41 µM,241 to 245 °C (dec.)
"CC(C)(C)OC(=O)N1CCC2(CC1)Cn1cc(C(=O)NCc3ccc(Cl)cc3)c(=O)c3cc(CN4CCOCC4)cc(c31)O2 [Example 47, 1,1-Dimethylethyl 6-[[[(4-chlorophenyl)methyl]amino]carbonyl]-9′-(4-morpholinylmethyl)-7′-oxospiro[piperidine-4,2′(3′H)-[7H]pyrido[1,2,3-de][1,4]benzoxazine]-1-carboxylate]",0.83 µM,213 °C (dec.)
O=C(NCc1ccc(Cl)cc1)c1cn2c3c(cc(CN4CCOCC4)cc3c1=O)OC1(CCC3(CC1)OCCO3)C2 [Example 50],1.17 µM,> 260 °C
"Cn1ccnc1C1Cn2cc(C(=O)NCc3ccc(Cl)cc3)c(=O)c3cc(CN4CCOCC4)cc(c32)O1 (stereo not drawn) [Example 59, N-(4-Chlorobenzyl)-2-(1-methyl-1H-imidazol-2-yl)-9-(morpholin-4-ylmethyl)-7-oxo-2,3-dihydro-7H-[1,4]oxazino[2,3,4-ij]quinoline-6-carboxamide]",0.48 µM,> 260 °C
"O=C(NCc1ccc(Cl)cc1)c1cn2c3c(cc(CN4CCOCC4)cc3c1=O)OC(c1ccco1)C2 (stereo not drawn) [Example 60, N-(4-Chlorobenzyl)-2-(2-furyl)-9-(morpholin-4-ylmethyl)-7-oxo-2,3-dihydro-7H-[1,4]oxazino[2,3,4-ij]quinoline-6-carboxamide]",0.46 µM,220 to 222.5 °C
"O=C(NCc1ccc(Cl)cc1)c1cn2c3c(cc(CN4CCOCC4)cc3c1=O)OC(c1cccc(CO)c1)C2 (stereo not drawn) [Example 62, N-(4-Chlorobenzyl)-2-[3-(hydroxymethyl)phenyl]-9-(morpholin-4-ylmethyl)-7-oxo-2,3-dihydro-7H-[1,4]oxazino[2,3,4-ij]quinoline-6-carboxamide]",0.38 µM,229 to 233 °C

# Continued, values first:
IC50 (CMV polymerase),melting point,Structure (SMILES)
0.4 µM,187 to 189 °C,"COCOc1cc(OCOC)cc(C2Cn3cc(C(=O)NCc4ccc(Cl)cc4)c(=O)c4cc(CN5CCOCC5)cc(c43)O2)c1 (stereo not drawn) [Example 43, 2-[3,5-bis(Methoxymethoxy)phenyl]-N-(4-chlorobenzyl)-9-(morpholin-4-ylmethyl)-7-oxo-2,3-dihydro-7H-[1,4]oxazino[2,3,4-ij]quinoline-6-carboxamide]"
1.04 µM,177 to 180 °C,"COCOc1cccc(C2Cn3cc(C(=O)NCc4ccc(Cl)cc4)c(=O)c4cc(CN5CCOCC5)cc(c43)O2)c1OCOC (stereo not drawn) [Example 44, 2-[2,3-bis(Methoxymethoxy)phenyl]-N-(4-chlorobenzyl)-9-(morpholin-4-ylmethyl)-7-oxo-2,3-dihydro-7H-[1,4]oxazino[2,3,4-ij]quinoline-6-carboxamide]"
0.53 µM,251 to 254 °C,"O=C(NCc1ccc(Cl)cc1)c1cn2c3c(cc(CN4CCOCC4)cc3c1=O)OC1(CCOCC1)C2 [Example 46, N-[(4-Chlorophenyl)methyl]-2,3,5,6-tetrahydro-9′-(4-morpholinylmethyl)-7′-oxospiro[4H-pyran-4,2′(3′H)-[7H]pyrido[1,2,3-de][1,4]benzoxazine]-6′-carboxamide]"
2.15 µM,246 to 250 °C (dec.),"O=C(NCc1ccc(Cl)cc1)c1cn2c3c(cc(CN4CCOCC4)cc3c1=O)OC1(CCNCC1)C2 [Example 48, N-[(4-Chlorophenyl)methyl]-9′-(4-morpholinylmethyl)-7′-oxospiro[piperidine-4,2′(3′H)-[7H]pyrido[1,2,3-de][1,4]benzoxazine]-6′-carboxamide]"
2.33 µM,234 to 237 °C (dec.),"CN1CCC2(CC1)Cn1cc(C(=O)NCc3ccc(Cl)cc3)c(=O)c3cc(CN4CCOCC4)cc(c31)O2 [Example 49, N-[(4-Chlorophenyl)methyl]-1-methyl-9′-(4-morpholinylmethyl)-7′-oxospiro[piperidine-4,2′(3′H)-[7H]pyrido[1,2,3-de][1,4]benzoxazine]-6′-carboxamide]"
0.75 µM,147 to 149 °C,"COCOCC1(COCOC)Cn2cc(C(=O)NCc3ccc(Cl)cc3)c(=O)c3cc(CN4CCOCC4)cc(c32)O1 [Example 51, N-(4-Chlorobenzyl)-2,2-bis[(methoxymethoxy)methyl]-9-(morpholin-4-ylmethyl)-7-oxo-2,3-dihydro-7H-[1,4]oxazino[2,3,4-ij]quinoline-6-carboxamide]"
0.81 µM,230 to 233 °C,"O=C(NCc1ccc(Cl)cc1)c1cn2c3c(cc(CN4CCOCC4)cc3c1=O)OC(CO)(CO)C2 [Example 52, N-(4-Chlorobenzyl)-2,2-bis(hydroxymethyl)-9-(morpholin-4-ylmethyl)-7-oxo-2,3-dihydro-7H-[1,4]oxazino[2,3,4-ij]quinoline-6-carboxamide]"
0.53 µM,147 to 149 °C,"O=C(NCc1ccc(Cl)cc1)c1cn2c3c(cc(CN4CCOCC4)cc3c1=O)OC1(CCSCC1)C2 [Example 53, N-[(4-Chlorophenyl)methyl]-2′,3′,5′,6′-tetrahydro-9-(4-morpholinylmethyl)-7-oxospiro[7H-pyrido[1,2,3-de]-1,4-benzoxazine-2(3H),4′-[4H]thiopyran]-6-carboxamide]"
0.6 µM,249.5 to 252 °C,"O=C1CCC2(CC1)Cn1cc(C(=O)NCc3ccc(Cl)cc3)c(=O)c3cc(CN4CCOCC4)cc(c31)O2 [Example 54, N-[(4-Chlorophenyl)methyl]-9′-(4-morpholinylmethyl)-4,7′-dioxospiro[cyclohexane-1,2′(3′H)-[7H]pyrido[1,2,3-de][1,4]benzoxazine]-6′-carboxamide]"
0.41 µM,229 to 234 °C,"O=C(NCc1ccc(Cl)cc1)c1cn2c3c(cc(CN4CCOCC4)cc3c1=O)OC1(CCC(O)CC1)C2 (stereo not drawn) [Example 55, N-[(4-Chlorophenyl)methyl]-4-hydroxy-9′-(4-morpholinylmethyl)-7′-oxospiro[cyclohexane-1,2′(3′H)-[7H]pyrido[1,2,3-de][1,4]benzoxazine]-6′-carboxamide]"
0.54 µM,186.5 to 189 °C,"COCOCc1cccc(C2Cn3cc(C(=O)NCc4ccc(Cl)cc4)c(=O)c4cc(CN5CCOCC5)cc(c43)O2)c1 (stereo not drawn) [Example 61, N-(4-Chlorobenzyl)-2-{3-[(methoxymethoxy)methyl]phenyl}-9-(morpholin-4-ylmethyl)-7-oxo-2,3-dihydro-7H-[1,4]oxazino[2,3,4-ij]quinoline-6-carboxamide]"
